Data taken from publication PMC5224920, “Assessing the mechanism and therapeutic potential of modulators of the human Mediator complex-associated protein kinases” (eLife, 2016).

Assays:
SW837 [1] = assay: 24 hour TCF/LEF reporter assay, SW837; type: cell-based; conditions: Homo sapiens, SW837, 24 h, read-out: 24 hour TCF/LEF Reporter assay IC50
p-STAT1^SER727 = assay: Inhibition of STAT1 SER727 phosphorylation in cells (target-engagement biomarker); conditions: read-out: p-STAT1^SER727 IC50
COLO205 [2] = assay: 96 hour proliferation GI50, COLO205; conditions: Homo sapiens, COLO 205, 96 h, read-out: 96 hour GI50
DLD1 [3] = assay: 96 hour proliferation GI50, DLD1; conditions: Homo sapiens, DLD-1, 96 h, read-out: 96 hour GI50
SW948 = assay: 96 hour proliferation GI50, SW948; conditions: Homo sapiens, SW948, 96 h, read-out: 96 hour GI50
HT29 = assay: 96 hour proliferation GI50, HT29; conditions: Homo sapiens, HT-29, 96 h, read-out: 96 hour GI50
Beagle dogs = assay: 14-day oral tolerability study in dogs; conditions: for Fold of efficacious dose; 10 mg/kg / Fold of efficacious dose; 30 mg/kg: CMPD 4, dog 20 mg/kg
LS174T [4] = assay: 96 hour proliferation GI50, LS174T; conditions: Homo sapiens, read-out: 96 hour GI50
[5] = test system: SW620 human colorectal cancer xenografts; assay: SW620 human colorectal cancer xenograft, tumor growth inhibition; type: in vivo
RKO [6] = assay: 24 hour reporter assay, RKO negative control (EEF1A1 promoter-reporter); type: cell-based; conditions: Homo sapiens, RKO, read-out: 24 hour TCF/LEF Reporter assay IC50
Mouse PK = type: in vivo
LS180 [7] = assay: 24 hour TCF/LEF reporter assay, LS180; type: cell-based; conditions: Homo sapiens, LS180, 24 h, read-out: 24 hour TCF/LEF Reporter assay IC50
LS513 = assay: 96 hour proliferation GI50, LS513; conditions: Homo sapiens, LS-513, 96 h, read-out: 96 hour GI50
LS174T [8] = assay: LS174T basal WNT-pathway luciferase reporter; conditions: mean ± s.d. or *± range
SW620 = assay: 96 hour proliferation GI50, SW620; conditions: Homo sapiens, SW-620, 96 h, read-out: 96 hour GI50
SW837 [9] = assay: 96 hour proliferation GI50, SW837; conditions: Homo sapiens, SW837, 96 h, read-out: 96 hour GI50
[10] = test system: LS1034 colorectal cancer xenografts; assay: LS1034 colorectal cancer xenograft, tumor growth inhibition; type: in vivo, human; conditions: day 22, P ns
COLO205 [11] = assay: 24 hour TCF/LEF reporter assay, COLO205; type: cell-based; conditions: Homo sapiens, COLO 205, 24 h, read-out: 24 hour TCF/LEF Reporter assay IC50
Rat PK = type: in vivo
Wistar rats = assay: 14-day oral tolerability study in rats; type: in vivo; conditions: for Target organs: Rat
Text: Animals were culled 24 hr after the last dose. Additional satellite animals for toxicokinetic evaluations were included.

LS174T [12] = assay: 24 hour TCF/LEF reporter assay, LS174T; type: cell-based; conditions: Homo sapiens, read-out: 24 hour TCF/LEF Reporter assay IC50
[13] = test system: p-STAT1^SER727 in SW620 tumor xenografts; assay: p-STAT1 SER727 level in SW620 xenografts (pharmacodynamics); type: in vivo, human; conditions: SW620 xenografts; 10 mg/kg
Protocol: As with 3, 10 mg/kg of 4 inhibited the pathway biomarker for 6 hr, but was not sufficient for antitumor activity in SW620 xenografts (Figure 2A and Figure 2—source data 1).

MV-4-11 AML xenograft = assay: MV-4-11 AML subcutaneous xenograft; type: in vivo, human; conditions: 2 hr post-treatment
Dog PK = type: in vivo
LS180 [14] = assay: 96 hour proliferation GI50, LS180; conditions: Homo sapiens, LS180, 96 h, read-out: 96 hour GI50
RKO [15] = assay: 96 hour proliferation GI50, RKO; conditions: Homo sapiens, read-out: 96 hour GI50
DLD1 [16] = assay: 24 hour TCF/LEF reporter assay, DLD1; type: cell-based; conditions: Homo sapiens, DLD-1, 24 h, read-out: 24 hour TCF/LEF Reporter assay IC50

For `Cc1n[nH]c2ncc(C(=O)N3CCC[C@H]3c3ccc(Cl)cc3)cc12` [CMPD 4], which IC50 (SW837 [1]) is on record?
The IC50 was 0.008 µM.

What about the IC50 (p-STAT1^SER727) of the same compound?
The IC50 was 0.0077 ± 0.0022 µM.

And the GI50 (COLO205 [2])?
Its GI50 is over 30 µM.

What about the GI50 (DLD1 [3]) of the same compound?
Its GI50 is over 30 µM.

What about the GI50 (SW948) of the same compound?
Its GI50 is over 30 µM.

What about the GI50 (HT29) of the same compound?
The GI50 was over 30 µM.

And the “Fold of efficacious dose; 10 mg/kg” value (Beagle dogs; female)?
Its value is about 46.

What about the “Fold of efficacious dose; 30 mg/kg” value (Beagle dogs; female) of the same compound?
The value was about 15.

And the “Fold of efficacious dose; 10 mg/kg” value (Beagle dogs; male)?
Its value is about 22.

What about the “Fold of efficacious dose; 30 mg/kg” value (Beagle dogs; male) of the same compound?
Its value is about 7.

What about the Target organs (Beagle dogs; Dog, low dose 20 mg/kg daily oral for 14 days) of the same compound?
The Target organs was “Bone marrow, heart, Intestines, lymphatic system”.

And the GI50 (LS174T [4])?
The GI50 was over 30 µM.

And the TGI ([5]; 5 x 2 mg/kg x doses/day, day 13, nr = no response, P ns)?
Its TGI is “nr”.

And the TGI ([5]; 10 x 1 mg/kg x doses/day, day 13, nr = no response, P ns)?
The TGI was “nr”.

What about the TGI ([5]; 50 x 2b mg/kg x doses/day, day 16, P ns) of the same compound?
The TGI was 51%.

What about the TGI ([5]; 100 x 1 mg/kg x doses/day, day 16, P ns) of the same compound?
The TGI was 43%.

And the IC50 (RKO [6])?
Its IC50 is over 30 µM.

And the “Mouse PK Cl” value (Mouse PK; 0.2mg/kg i.v.)?
Its value is 1.37 L/h/kg.

And the “Mouse PK F” value (Mouse PK; 0.2mg/kg i.v. or 0.5mg/kg p.o.)?
Its value is 25%.

What about the Vd (Mouse PK; female, NMRI, mouse, in vivo, iv, 0.2mg/kg i.v.) of the same compound?
The Vd was 0.59 L/kg.

What about the IC50 (LS180 [7]) of the same compound?
The IC50 was 0.031 µM.

And the GI50 (LS513)?
Its GI50 is over 30 µM.

And the IC50 (LS174T [8]; Homo sapiens, LS174T, read-out: LS174T IC50, basal WNT-pathway luciferase reporter)?
The IC50 was 0.0295 ± 0.0095 µM.

What about the IC50 (LS174T [8]; read-out: LS174T IC50, basal WNT-pathway luciferase reporter) of the same compound?
The IC50 was 0.0362 ± 0.0095 µM.

What about the GI50 (SW620) of the same compound?
Its GI50 is over 30 µM.

And the GI50 (SW837 [9])?
The GI50 was over 30 µM.

And the TGI ([10]; 50 x 2 mg/kg x doses/day)?
Its TGI is 52%.

And the TGI ([10]; 100 x 1 mg/kg x doses/day)?
The TGI was 30%.

And the IC50 (COLO205 [11])?
The IC50 was 0.009 µM.

What about the “Rat PK Vd” value (Rat PK; 0.2mg/kg i.v.) of the same compound?
Its value is 1.62 L/kg.

And the “Rat PK F” value (Rat PK; 0.2mg/kg i.v. or 0.5mg/kg p.o.)?
The value was 66%.

What about the clearance (Rat PK; male, Wistar, rat, in vivo, iv, 0.2mg/kg i.v., read-out: Rat PK Cl (converted)) of the same compound?
Its clearance is 1.5 L/h/kg.

What about the “Fold of efficacious dose; 10 mg/kg” value (Wistar rats; CMPD 4, rat 10 mg/kg, female) of the same compound?
Its value is about 2.4.

And the “Fold of efficacious dose; 30 mg/kg” value (Wistar rats; CMPD 4, rat 10 mg/kg, female)?
Its value is about 0.8.

And the “Fold of efficacious dose; 10 mg/kg” value (Wistar rats; CMPD 4, rat 10 mg/kg, male)?
Its value is about 0.9.

And the “Fold of efficacious dose; 30 mg/kg” value (Wistar rats; CMPD 4, rat 10 mg/kg, male)?
Its value is about 0.3.

What about the “Fold of efficacious dose; 10 mg/kg” value (Wistar rats; CMPD 4, rat 20 mg/kg, female) of the same compound?
The value was about 5.7.

What about the “Fold of efficacious dose; 30 mg/kg” value (Wistar rats; CMPD 4, rat 20 mg/kg, female) of the same compound?
The value was about 1.9.

What about the “Fold of efficacious dose; 10 mg/kg” value (Wistar rats; CMPD 4, rat 20 mg/kg, male) of the same compound?
Its value is about 3.9.

And the “Fold of efficacious dose; 30 mg/kg” value (Wistar rats; CMPD 4, rat 20 mg/kg, male)?
The value was about 1.3.

What about the “Fold of efficacious dose; 10 mg/kg” value (Wistar rats; CMPD 4, rat 60 mg/kg, female) of the same compound?
The value was about 23.1.

And the “Fold of efficacious dose; 30 mg/kg” value (Wistar rats; CMPD 4, rat 60 mg/kg, female)?
The value was about 7.7.

And the “Fold of efficacious dose; 10 mg/kg” value (Wistar rats; CMPD 4, rat 60 mg/kg, male)?
The value was about 10.8.

And the “Fold of efficacious dose; 30 mg/kg” value (Wistar rats; CMPD 4, rat 60 mg/kg, male)?
Its value is about 3.6.

What about the Target organs (Wistar rats; high dose 60 mg/kg daily oral for 14 days) of the same compound?
Its Target organs is “Bone, bone marrow, brain, heart, intestines, liver, lung, lymph nodes, mammary gland, pancreas, reproductive tract (m and f), skin, spleen, stomach, thymus”.

What about the Target organs (Wistar rats; low dose 10 mg/kg daily oral for 14 days (CMPD 4)) of the same compound?
The Target organs was “Bone, bone marrow, intestines, liver, lung, lymph nodes, mammary gland, pancreas, reproductive tract (m and f), skin, spleen, stomach, thymus”.

And the Target organs (Wistar rats; mid dose 20 mg/kg daily oral for 14 days (CMPD 4))?
The Target organs was “Bone, bone marrow, heart, intestines, liver, lung, lymph nodes, mammary gland, pancreas, reproductive tract (m and f), skin, spleen, stomach, thymus”.

And the IC50 (LS174T [12])?
The IC50 was 0.031 µM.

And the “Time pathway biomarker (p-STAT1^SER727) inhibited” value [13]?
Its value is 6 h.

And the “Target inhibition by p-STAT1^SER727” value (MV-4-11 AML xenograft)?
The value was “near maximal target inhibition”.

And the “Dog PK Cl” value (Dog PK; 0.2mg/kg i.v.)?
Its value is 1.35 L/h/kg.

What about the “Dog PK Vd” value (Dog PK; 0.2mg/kg i.v.) of the same compound?
The value was 1.47 L/kg.

And the “Dog PK F” value (Dog PK; 0.2mg/kg i.v. or 0.5mg/kg p.o.)?
The value was 39%.

What about the GI50 (LS180 [14]) of the same compound?
Its GI50 is over 30 µM.

What about the GI50 (RKO [15]) of the same compound?
Its GI50 is over 30 µM.

And the IC50 (DLD1 [16])?
The IC50 was 0.097 µM.
